According to ChEMBL document CHEMBL2440005, “Discovery and structure-activity relationships of 6-(benzoylamino)benzoxaboroles as orally active anti-inflammatory agents” (Bioorg Med Chem Lett, 2013):
Active and inactive are the calls of the source. No cut-off for these calls is given here.

Assays:
PBMC [1] = test: Antiinflammatory activity in human PBMC assessed as inhibition of LPS-induced IL-6 release incubated for 15 mins prior to LPS-challenge measured after 24 hrs by HTRF assay; assay type: functional, cell-based
PBMC [2] = test: Antiinflammatory activity in human PBMC assessed as inhibition of LPS-induced IL-1beta release incubated for 15 mins prior to LPS-challenge measured after 24 hrs by HTRF assay; assay type: functional, cell-based
PBMC [3] = test: Antiinflammatory activity in human PBMC assessed as inhibition of LPS-induced TNFalpha release incubated for 15 mins prior to LPS-challenge measured after 24 hrs by HTRF assay; assay type: functional, cell-based
Mus musculus [4] = test: Toxicity in mouse assessed as change in body weight at 3 mg/kg, po qd after 20 days relative to untreated control; assay type: organism-based; parameters: dose 3 mg/kg, route oral; conditions: in vivo, 480 h
Mus musculus [5] = test: Antiinflammatory activity in collagen-induced arthritis mouse model at 3 mg/kg, po qd after 20 days; assay type: functional, organism-based; parameters: dose 3 mg/kg

SMILES: O=C(Nc1ccc2c(c1)B(O)OC2)c1cc(F)ccc1C(F)(F)F
- IC50 (PBMC [1]): 8.2 µM
- IC50 (PBMC [2]): 11 µM
- IC50 (PBMC [3]): 28 µM

SMILES: COc1ccccc1C(=O)Nc1ccc2c(c1)B(O)OC2
- IC50 (PBMC [1]): > 100 µM
- IC50 (PBMC [2]): > 100 µM
- IC50 (PBMC [3]): 36 µM

SMILES: O=C(Nc1ccc2c(c1)B(O)OC2)c1ccccc1OC(F)(F)F
- IC50 (PBMC [1]): > 100 µM
- IC50 (PBMC [2]): > 100 µM
- IC50 (PBMC [3]): > 100 µM

SMILES: O=C(Nc1ccc2c(c1)B(O)OC2)c1ccccc1Cl
- IC50 (PBMC [1]): > 100 µM
- IC50 (PBMC [2]): > 100 µM
- IC50 (PBMC [3]): > 100 µM

SMILES: O=C(Nc1ccc2c(c1)B(O)OC2)c1cccc(C(F)(F)F)c1F
- IC50 (PBMC [1]): > 100 µM
- IC50 (PBMC [2]): > 100 µM
- IC50 (PBMC [3]): 99 µM

SMILES: O=C(Nc1ccc2c(c1)B(O)OC2)c1ccc(C(F)(F)F)cc1F
- IC50 (PBMC [1]): > 100 µM
- IC50 (PBMC [2]): > 100 µM
- IC50 (PBMC [3]): > 100 µM

SMILES: O=C(Nc1ccc2c(c1)B(O)OC2)c1cc(C(F)(F)F)ccc1C(F)(F)F
- IC50 (PBMC [1]): 3 µM
- IC50 (PBMC [2]): 2 µM
- IC50 (PBMC [3]): 6.3 µM

SMILES: Cc1ccccc1C(=O)Nc1ccc2c(c1)B(O)OC2
- IC50 (PBMC [1]): > 100 µM
- IC50 (PBMC [2]): > 100 µM
- IC50 (PBMC [3]): > 100 µM

SMILES: O=C(Nc1ccc2c(c1)B(O)OC2)c1ccc(C(F)(F)F)cc1C(F)(F)F
- IC50 (PBMC [1]): 8.3 µM
- IC50 (PBMC [2]): 5.3 µM
- IC50 (PBMC [3]): 10 µM

SMILES: O=C(Nc1ccc2c(c1)B(O)OC2)c1cc(C(F)(F)F)ccc1F
- IC50 (PBMC [1]): > 100 µM
- IC50 (PBMC [2]): > 100 µM
- IC50 (PBMC [3]): > 100 µM

SMILES: O=C(Nc1ccc2c(c1)B(O)OC2)c1ccccc1
- IC50 (PBMC [1]): > 100 µM
- IC50 (PBMC [2]): > 100 µM
- IC50 (PBMC [3]): > 100 µM

SMILES: O=C(Nc1ccc2c(c1)B(O)OC2)Nc1ccccc1C(F)(F)F
- IC50 (PBMC [1]): > 10 µM
- IC50 (PBMC [2]): > 10 µM
- IC50 (PBMC [3]): > 10 µM

SMILES: OB1OCc2ccc(NCc3ccccc3C(F)(F)F)cc21
- IC50 (PBMC [1]): > 10 µM
- IC50 (PBMC [2]): > 10 µM
- IC50 (PBMC [3]): > 10 µM

SMILES: O=C(Nc1ccc2c(c1)B(O)OC2)c1c(F)cccc1Cl
- IC50 (PBMC [1]): 4.9 µM
- IC50 (PBMC [2]): 3.1 µM
- IC50 (PBMC [3]): 15 µM

SMILES: O=C(Nc1ccc2c(c1)B(O)OC2)c1ccc(C(F)(F)F)cc1
- IC50 (PBMC [1]): > 100 µM
- IC50 (PBMC [2]): > 100 µM
- IC50 (PBMC [3]): > 100 µM

SMILES: O=C(Nc1ccc2c(c1)B(O)OC2)c1ccccc1C(F)(F)F
- IC50 (PBMC [1]): 4.4 µM
- IC50 (PBMC [2]): 2.1 µM
- IC50 (PBMC [3]): 7.2 µM

SMILES: C[C@]12C=CC(=O)C=C1CC[C@@H]1[C@@H]2[C@@H](O)C[C@@]2(C)[C@H]1CC[C@]2(O)C(=O)CO [PREDNISOLONE]
- Activity (Mus musculus [4]): Non-toxic
- inhibition (Mus musculus [5]): Active

SMILES: O=C(Nc1ccc2c(c1)B(O)OC2)c1cccc(C(F)(F)F)c1
- IC50 (PBMC [1]): > 10 µM
- IC50 (PBMC [2]): > 10 µM
- IC50 (PBMC [3]): > 10 µM

SMILES: O=C(Nc1ccc2c(c1)B(O)OC2)c1ccc(F)cc1C(F)(F)F
- IC50 (PBMC [1]): 5.6 µM
- IC50 (PBMC [2]): 3.2 µM
- IC50 (PBMC [3]): 13 µM

SMILES: O=C(Nc1ccc2c(c1)B(O)OC2)c1c(F)cccc1C(F)(F)F
- IC50 (PBMC [1]): 0.37 µM
- IC50 (PBMC [2]): 0.18 µM
- IC50 (PBMC [3]): 1.2 µM

SMILES: O=S(=O)(Nc1ccc2c(c1)B(O)OC2)c1ccccc1C(F)(F)F
- IC50 (PBMC [1]): > 10 µM
- IC50 (PBMC [2]): > 10 µM
- IC50 (PBMC [3]): > 10 µM

SMILES: O=C(Nc1ccc2c(c1)B(O)OC2)c1ccccc1F
- IC50 (PBMC [1]): > 10 µM
- IC50 (PBMC [2]): > 10 µM
- IC50 (PBMC [3]): > 100 µM

SMILES: O=C(Nc1ccc2c(c1)B(O)OC2)c1cccc(Cl)c1F
- IC50 (PBMC [1]): > 100 µM
- IC50 (PBMC [2]): > 100 µM
- IC50 (PBMC [3]): > 100 µM

SMILES: O=C(Nc1ccc2c(c1)B(O)OC2)c1ccccc1-c1ccccc1
- IC50 (PBMC [1]): > 100 µM
- IC50 (PBMC [2]): > 100 µM
- IC50 (PBMC [3]): > 100 µM
